Reference: patent US20060148674A1, “Therapeutic composition” (priority 2004, published 2006)

Key:
[1] = molecular target: T1, thioredoxin reductase (Homo sapiens, UniProt Q16881); details: cited from earlier work
T1 sequence (Q16881 1-499 isoform Q16881-5): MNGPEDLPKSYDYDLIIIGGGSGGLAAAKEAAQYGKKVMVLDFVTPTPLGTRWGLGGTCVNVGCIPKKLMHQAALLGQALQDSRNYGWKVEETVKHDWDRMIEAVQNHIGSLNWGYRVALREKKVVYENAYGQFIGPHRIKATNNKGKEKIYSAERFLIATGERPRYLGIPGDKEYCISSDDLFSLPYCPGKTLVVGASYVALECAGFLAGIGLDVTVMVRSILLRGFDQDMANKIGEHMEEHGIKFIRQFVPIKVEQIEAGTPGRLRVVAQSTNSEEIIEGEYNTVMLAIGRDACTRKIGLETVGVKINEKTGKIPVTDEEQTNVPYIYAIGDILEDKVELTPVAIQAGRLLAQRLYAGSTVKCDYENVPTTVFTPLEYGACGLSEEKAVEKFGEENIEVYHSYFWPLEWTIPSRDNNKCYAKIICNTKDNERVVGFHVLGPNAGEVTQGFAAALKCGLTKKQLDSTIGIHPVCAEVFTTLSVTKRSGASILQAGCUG

[2] = molecular target: T2, thioredoxin reductase/thioredoxin (Homo sapiens, UniProt Q16881); details: cited from earlier work
T2 sequence (Q16881 1-499 isoform Q16881-5): T1 sequence (Q16881 1-499 isoform Q16881-5)

[3] = molecular target: T3, thioredoxin reductase and thioredoxin (Homo sapiens, UniProt P10599+Q16881); details: cited from earlier work
T3 sequence (Q16881 151-649 limits assumed): T1 sequence (Q16881 1-499 isoform Q16881-5)
T3 sequence (P10599 1-105): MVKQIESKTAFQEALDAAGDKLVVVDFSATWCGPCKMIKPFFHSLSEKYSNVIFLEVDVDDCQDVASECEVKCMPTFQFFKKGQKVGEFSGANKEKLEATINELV

[4] = 2.5 mg/kg, mice; cited from earlier work
[5] = molecular target: T4, alpha/beta III (Bos taurus, UniProt Q2T9S0); details: cited from earlier work
T4 construct: from tissue; host or cells: bovine brain (cerebra)

[6] = molecular target: T5, alpha/beta II (Bos taurus, UniProt Q6B856); details: cited from earlier work
T5 construct: from tissue; host or cells: bovine cerebra

[7] = molecular target: alpha/beta IV; details: cited from earlier work
[8] = molecular target: alpha/beta III dimer (Bos taurus, UniProt Q2T9S0); details: compared with alpha/beta II and alpha/beta IV dimers; cited from earlier work
[9] = tested on: BT-549 breast cancer cell line; experiment: drug resistance of breast cancer cell line; format: cell-based; details: BT-549 compared with MCF-7
[10] = tested on: brain tubulin; set-up: dose or concentration left out as unconfirmed; details: cited from earlier work
[11] = molecular target: T6, erythrocyte tubulin (Gallus gallus, UniProt P09207); set-up: dose or concentration left out as unconfirmed; details: cited from earlier work
T6 construct: from tissue; host or cells: chicken erythrocytes

[12] = tested on: colon tumors of min mouse; details: in the diet at 250 ppm, cited from earlier work
[13] = tested on: human MCF-7 breast cancer; details: MCF-7 tumor system, scid mice; cited from earlier work
[14] = tested on: HL-60 leukemia; details: scid mice; a number of the animals without tumor at day 45; cited from earlier work

T5 sequence (Q6B856 whole entry): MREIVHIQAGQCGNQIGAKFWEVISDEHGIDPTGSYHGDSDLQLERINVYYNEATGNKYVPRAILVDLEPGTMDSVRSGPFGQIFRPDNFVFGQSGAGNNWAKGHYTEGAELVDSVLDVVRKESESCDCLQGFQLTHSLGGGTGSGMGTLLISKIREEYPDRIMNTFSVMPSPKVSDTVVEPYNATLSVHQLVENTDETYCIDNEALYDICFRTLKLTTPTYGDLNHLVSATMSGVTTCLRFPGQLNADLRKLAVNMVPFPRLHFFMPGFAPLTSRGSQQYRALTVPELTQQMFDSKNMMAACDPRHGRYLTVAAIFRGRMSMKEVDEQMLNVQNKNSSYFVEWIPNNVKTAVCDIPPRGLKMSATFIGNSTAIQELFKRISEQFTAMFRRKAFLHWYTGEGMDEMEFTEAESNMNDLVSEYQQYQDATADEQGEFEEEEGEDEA
T5 sequence (P81947 whole entry partner): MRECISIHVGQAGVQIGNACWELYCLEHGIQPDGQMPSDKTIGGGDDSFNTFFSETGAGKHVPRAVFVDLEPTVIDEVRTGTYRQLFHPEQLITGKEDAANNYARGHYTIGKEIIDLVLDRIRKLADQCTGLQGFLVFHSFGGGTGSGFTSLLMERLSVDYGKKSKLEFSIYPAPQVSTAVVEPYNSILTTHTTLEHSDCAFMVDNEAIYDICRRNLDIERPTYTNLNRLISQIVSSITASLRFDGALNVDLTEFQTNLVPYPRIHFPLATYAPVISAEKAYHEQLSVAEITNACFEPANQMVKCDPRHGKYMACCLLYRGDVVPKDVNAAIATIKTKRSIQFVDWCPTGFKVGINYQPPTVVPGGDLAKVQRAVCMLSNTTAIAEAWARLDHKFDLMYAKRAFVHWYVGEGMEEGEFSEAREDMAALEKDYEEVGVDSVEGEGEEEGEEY
T6 sequence (P09207 whole entry): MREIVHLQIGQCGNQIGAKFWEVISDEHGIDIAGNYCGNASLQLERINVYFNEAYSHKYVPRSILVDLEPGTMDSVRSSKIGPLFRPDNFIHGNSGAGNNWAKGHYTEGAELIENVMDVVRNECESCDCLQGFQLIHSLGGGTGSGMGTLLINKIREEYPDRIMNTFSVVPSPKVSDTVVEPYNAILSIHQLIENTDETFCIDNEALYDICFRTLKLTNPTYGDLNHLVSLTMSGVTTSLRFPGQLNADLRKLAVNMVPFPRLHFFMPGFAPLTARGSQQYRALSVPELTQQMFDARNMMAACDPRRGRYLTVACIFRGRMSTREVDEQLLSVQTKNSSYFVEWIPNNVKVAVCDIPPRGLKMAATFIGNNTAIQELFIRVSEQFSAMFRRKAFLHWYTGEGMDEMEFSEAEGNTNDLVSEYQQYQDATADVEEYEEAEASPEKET
T4 sequence (Q2T9S0 whole entry): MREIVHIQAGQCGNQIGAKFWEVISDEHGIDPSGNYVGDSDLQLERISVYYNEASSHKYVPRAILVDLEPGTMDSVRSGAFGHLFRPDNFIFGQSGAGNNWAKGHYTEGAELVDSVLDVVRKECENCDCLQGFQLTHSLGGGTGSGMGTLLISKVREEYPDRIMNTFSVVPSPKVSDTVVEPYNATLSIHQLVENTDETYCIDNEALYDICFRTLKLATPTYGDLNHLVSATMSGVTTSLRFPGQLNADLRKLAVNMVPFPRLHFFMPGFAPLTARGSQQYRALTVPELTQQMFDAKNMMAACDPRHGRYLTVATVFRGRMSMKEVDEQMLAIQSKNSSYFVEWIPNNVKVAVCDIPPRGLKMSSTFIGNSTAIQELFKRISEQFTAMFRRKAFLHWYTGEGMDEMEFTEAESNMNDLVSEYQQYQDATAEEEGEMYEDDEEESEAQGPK
T4 sequence (P81947 whole entry partner): as the sequence (P81947 whole entry partner) above
Sequence of alpha/beta III dimer (Q2T9S0 whole entry): as the sequence (Q2T9S0 whole entry) above
Sequence of alpha/beta III dimer (P81947 whole entry partner, looked up): as the sequence (P81947 whole entry partner) above

O=[N+]([O-])C(=C(Sc1ccccc1)Sc1ccccc1)C(Cl)=C(Cl)Cl [NSC 665103]
inhibition of thioredoxin reductase alone [1]: did not inhibit thioredoxin reductase alone | activity in the thioredoxin reductase/thioredoxin-dependent insulin assay [2]: active

CC1=C(CO)C2=C(C)C3(CC3)[C@@](C)(O)C(=O)C2=C1 [irofulven]
inhibition of thioredoxin reductase and thioredoxin [3]: selectively inhibit both thioredoxin reductase and thioredoxin | tolerability [4]: tolerable

COc1cc(OC)c(Cl)c(-n2c(-c3ccccc3)cc(=O)c(C)c2-c2ccc(F)cc2)c1 [IKP-104]
apparent dissociation constant for the high-affinity site (Kd1) [5]: lower than that of unfractionated tubulin | apparent dissociation constant for the high-affinity site (Kd1) [6]: lower than that of unfractionated tubulin | apparent dissociation constant for the high-affinity site (Kd1) [7]: greater than those of unfractionated tubulin, alpha/beta II, or alpha/beta III

CC(=O)O[C@H]1C(=O)[C@@]2(C)[C@H]([C@H](OC(=O)c3ccccc3)[C@]3(O)C[C@H](OC(=O)[C@H](O)[C@@H](NC(=O)c4ccccc4)c4ccccc4)C(C)=C1C3(C)C)[C@]1(OC(C)=O)CO[C@@H]1C[C@@H]2O [paclitaxel]
interaction of alpha/beta III dimer with ligand [8]: much less strongly | resistance of cell line to drug [9]: resistant

cryptophycin
resistance of cell line to drug [9]: resistant

CC[C@]1(O)C[C@@H]2CN(CCc3c([nH]c4ccccc34)[C@@](C(=O)OC)(c3cc4c(cc3OC)N(C)[C@H]3[C@@](O)(C(=O)OC)[C@H](OC(C)=O)[C@]5(CC)C=CCN6CC[C@]43[C@@H]65)C2)C1 [vinblastine]
brain tubulin aggregated into spirals [10]: About 42% | resistance of cell line to drug [9]: resistant | erythrocyte tubulin formed spirals [11]: 74%

CCC(C)SSc1ncc[nH]1 (centres unmarked) [IV-2, 1-methylpropyl 2-imidazolyl disulfide]
size of remaining tumors ([12]; p<0.001 compared to control): significant reduction | reduction of the number of tumors in the colon ([12]; p=0.0160): 70% | tumor inhibition [13]: 98% | antitumor activity against HL-60 leukemia [14]: showed antitumor activity

CCCCCCCC(=O)OC1C2C(CC1(C)C)C(=O)C13OC1C(=O)C1(CO1)C23C (centres unmarked) [NSC 163027]
inhibition of thioredoxin reductase alone [1]: did not inhibit thioredoxin reductase alone | activity in the thioredoxin reductase/thioredoxin-dependent insulin assay [2]: active

Cc1cccc2c1c1ccc3c(c1n2C)C(=O)C=CC3=O [NSC 645330]
inhibition of thioredoxin reductase alone [1]: did not inhibit thioredoxin reductase alone | activity in the thioredoxin reductase/thioredoxin-dependent insulin assay [2]: active

c1ccc(CSSc2ncc[nH]2)cc1 [DLK-36, benzyl-2-imidazolyl disulfide]
tumor inhibition [13]: 65% | antitumor activity against HL-60 leukemia [14]: showed antitumor activity
